Results on one compound are retold here after patent publication US10722491B2, “Phenol compound and combination of same with a benzodiazepine fused to 1,4-dihydropyridine for treating diseases of the central nervous and vascular systems” (UNIVERSIDAD DE LA HABANA, priority 2016, dated 2020).

The experiment deals with occlusion of the middle cerebral artery in rats. The experiment can be described thus: Transient middle cerebral artery occlusion, neurological deficit score. To be noted: 0.5 and 1 mg/kg oral, 1 hour after reperfusion. It is filed as in vivo. As for the experimental part:
FIG. 13. Acute treatment with KM-34 reduced the volume of infarction edema and deficit in rat behavior after 90 min of middle cerebral artery occlusion (MACA) and 23 hours of reperfusion. The different doses of the compound were administered orally 1 hour after reperfusion. (A) Representative brain coronal sections (2 mm thick) of the sham and ischemic groups treated with vehicle or KM-34 (0.1, 0.5 or 1 mg/kg) and stained with 2,3,5-triphenyltetrazolium (TTC) 2%. The red regions correspond to undamaged tissue and white to ischemic regions. (B) Quantitative analysis of cortical, subcortical and total lesion size. (C) Neurological deficit. The bars represent the mean ± SEM (n=8). Different letters in (A) and * in (B): p<0.05, by ANOVA and post hoc of Newman-Keuls. Scale=10 mm. […]
Transient cerebral ischemia was performed by the OACM, using the intraluminal filament method. […] After 23 hours of reperfusion, the neurological deficit was evaluated and the animals sacrificed to determine the infarct volume and perform the behavioral evaluations.
Neurological deficit was assessed according to a six-point scale: 0=no observable neurological deficit; 1=no extension of the left front leg; 2=shifts in circles to the left if the animal is suspended by the tail; 3=spontaneous displacements in circles to the left; 4=no spontaneous motor activity with decreased level of consciousness; 5=death.

Turning to `CC1(C)OC(=O)C(=Cc2ccc(O)c(O)c2)C(=O)O1` [KM-34, 5-[(3,4-dihydroxyphenyl)methylidene]-2,2-dimethyl-1,3-dioxane-4,6-dione], the “Neurological deficit (neurological score)” value is “significantly improved (p<0.05) the neurological deficit”.
